Several values for one entry are separate records, joined by “and”; a condition that tells them apart may be missing. Equal entries are not always repeated.
Assays:
[1] = system: human breast cancer cell line (4T1); experiment: In vitro drug efficacy assay, cell survival rate (Rh2/PTX groups)
Experimental: Logarithmically growing tumor cells were collected and resuspended in DMEM complete medium supplemented with 10% fetal bovine serum, 100 U/ml penicillin and 100 μg/ml streptomycin to a final cell density of 4×10^4 cells/ml. Then, 200 μl cell suspension solution was seeded into each well of a 96-well plate (with a concentration of 8×10^3 cells/well) and the plate was cultured in a CO2 cell culture incubator at 37° C. […] The group without replacing DMEM complete medium by anti-cancer drug solution was used as negative control. For each concentration group, 4 replicates were set up. The whole experiment was independently repeated 3 times. The cells were continuously cultured in a CO2 cell culture incubator at 37° C. […] Then discarded the supernatant, added 150 μl DMSO into each well, and shaked the plate for 10 min. The absorbance was measured at 490 nm using a microplate reader (Tecan infinite M 200 TECAN, Switzerland). The cell survival rate is calculated according to the following formula:

[2] = in words; cited from earlier work
[3] = system: human breast cancer cell 4T1; experiment: In vivo drug efficacy assay, relative tumor volume (Rh2/PTX groups); design: species or system nude mice; details: 4T1, tail vein 30 mg/kg
Experimental: To evaluate the drug efficacy in vivo, 45 subcutaneous tumor-bearing nude mice were randomized into 5 treatment groups (9 in each group) and intravenously injected with PBS solution (control group), ginsenoside Rh2 (Rh2 group), ginsenoside Rh2 blank liposome (Rh2-Blank group), conventional paclitaxel cholesterol liposome (PTX-Cho-Lipo group) and ginsenoside Rh2 paclitaxel liposome (PTX-Rh2-Gipo group) via tail vein at a dose of 30 mg/kg. The changes of body weights of mice in each group were recorded every 2 days, and the longest diameter and the shortest diameter of tumors were measured with vernier calipers. The tumor volume was calculated by the following formula: V=(dmax×dmin^2)/2, wherein dmin and dmax are respectively the shortest diameter and the longest diameter (mm) of the tumor; a relative tumor volume (RTV) was calculated according to the measurement results, by the formula: RTV=TVn/TV0, […], TV0 is the volume of the tumor measured at day zero (the administration day).

[4] = system: in-situ glioma model (C6 cells); experiment: Survival curve and median survival day; format: in vivo, nude mice
[5] = system: human gastric cancer cell (BGC-823); experiment: In vivo pharmacological efficacy assay, relative tumor volume; design: species or system nude mice
Experimental: 2. In vivo pharmacological efficacy assay: A total of 72 subcutaneous tumor-bearing nude mice were randomerized into 8 groups (9 in each group), and intravenously injected with PBS solution (Control group,), Rg3, Rg3-blank, PTX-Cho-Lipo, Abraxane, PTX-Rg5-Gipo, PTX-Rg3-Gipo and PTX-Rh2-Gipo, via tail vein at a dose of 10 mg·kg^1. The changes of mice body weights in each group were recorded every 2 days, and the longest diameter and the shortest diameter of tumors were measured with vernier calipers. The tumor volume is calculated by the following formula: V=(dmax×dmin^2)/2, wherein dmin and dmax are respectively the shortest diameter and the longest diameter (mm) of the tumor; a relative tumor volume (RTV) is calculated according to the measurement results by the formula: RTV=TVn/TV0,
wherein TVn is the volume of the tumor measured every 2 days, TV0 is the volume of the tumor measured at day zero (the administration day).

[6] = system: rat C6 glioma cells; experiment: In vitro drug efficiency assay, survival rate of glioma cells; format: cell-based
[7] = system: human breast cancer cell line (4T1); experiment: In vitro cytotoxicity studies (DTX groups); format: cell-based
Experimental: For each concentration group, 4 replicates were set up. The whole experiment was independently repeated 3 times.
The in vitro cytotoxicity was evaluated using human breast cancer cell line (4T1).

CC(C)=CCC[C@](C)(O)[C@H]1CC[C@]2(C)[C@@H]1[C@H](O)C[C@@H]1[C@@]3(C)CC[C@H](O[C@@H]4O[C@H](CO)[C@@H](O)[C@H](O)[C@H]4O)C(C)(C)[C@@H]3CC[C@]12C [Rh2, ginsenoside Rh2]
Cell Viability ([1]; 4T1, C 0.00366 μM): 104.04 | Cell Viability ([1]; 4T1, C 0.01097 μM): 92.85 | Cell Viability ([1]; 4T1, C 0.03292 μM): 94.47 | Cell Viability ([1]; 4T1, C 0.09877 μM): 99.90 | Cell Viability ([1]; 4T1, C 0.29630 μM): 98.07 | Cell Viability ([1]; 4T1, C 0.88889 μM): 96.04 | Cell Viability ([1]; 4T1, C 2.66667 μM): 104.25 | Cell Viability ([1]; 4T1, C 8.00000 μM): 100.73 | activity in vitro against human breast cancer cells (4T1) ([1]; in words): low activity | solubility in diethyl ether and chloroform [2]: insoluble in diethyl ether and chloroform | solubility in methanol and ethanol [2]: soluble in methanol and ethanol | solubility in water [2]: poorly soluble in water | Relative tumor volume ([3]; time 0 d): 100.00 | Relative tumor volume ([3]; time 3 d): 200.94 | Relative tumor volume ([3]; time 6 d): 316.69 | Relative tumor volume ([3]; time 9 d): 276.04 | Relative tumor volume ([3]; time 12 d): 400.20 | Relative tumor volume ([3]; time 15 d): 473.53 | Relative tumor volume ([3]; time 18 d): 510.20 | Relative tumor volume ([3]; time 21 d): 898.52

CC(C)=CCC[C@](C)(O)[C@H]1CC[C@]2(C)[C@@H]1[C@H](O)C[C@@H]1[C@@]3(C)CC[C@H](O[C@@H]4O[C@H](CO)[C@@H](O)[C@H](O)[C@H]4O[C@@H]4O[C@H](CO)[C@@H](O)[C@H](O)[C@H]4O)C(C)(C)[C@@H]3CC[C@]12C [Rg3, Ginsenoside 20(S)-Rg3]
solubility in diethyl ether and chloroform [2]: insoluble in diethyl ether and chloroform | solubility in methanol and ethanol [2]: soluble in methanol and ethanol | solubility in water [2]: poorly soluble in water | Median survial ([4]; tail vein 10 mg·kg^−1): 29 days and 32 days | number of survived mice ([4]; tail vein 10 mg·kg^−1, Time 12 d): 10 | number of survived mice ([4]; tail vein 10 mg·kg^−1, Time 14 d): 10 | number of survived mice ([4]; tail vein 10 mg·kg^−1, Time 16 d): 9 | number of survived mice ([4]; tail vein 10 mg·kg^−1, Time 18 d): 9 | number of survived mice ([4]; tail vein 10 mg·kg^−1, Time 20 d): 8 | number of survived mice ([4]; tail vein 10 mg·kg^−1, Time 22 d): 7 | number of survived mice ([4]; tail vein 10 mg·kg^−1, Time 24 d): 7 | number of survived mice ([4]; tail vein 10 mg·kg^−1, Time 26 d): 6 | number of survived mice ([4]; tail vein 10 mg·kg^−1, Time 28 d): 5 | number of survived mice ([4]; tail vein 10 mg·kg^−1, Time 30 d): 4 | number of survived mice ([4]; tail vein 10 mg·kg^−1, Time 32 d): 4 | number of survived mice ([4]; tail vein 10 mg·kg^−1, Time 34 d): 3 | number of survived mice ([4]; tail vein 10 mg·kg^−1, Time 36 d): 3 | number of survived mice ([4]; tail vein 10 mg·kg^−1, Time 38 d): 2 | number of survived mice ([4]; tail vein 10 mg·kg^−1, Time 40 d): 1 | number of survived mice ([4]; tail vein 10 mg·kg^−1, Time 42 d): 0 | number of survived mice ([4]; tail vein 10 mg·kg^−1, Time 44 d): 0 | number of survived mice ([4]; tail vein 10 mg·kg^−1, Time 46 d): 0 | number of survived mice ([4]; tail vein 10 mg·kg^−1, Time 48 d): 0 | number of survived mice ([4]; tail vein 10 mg·kg^−1, Time 50 d): 0 | number of survived mice ([4]; tail vein 10 mg·kg^−1, Time 52 d): 0 | number of survived mice ([4]; tail vein 10 mg·kg^−1, Time 54 d): 0 | number of survived mice ([4]; tail vein 10 mg·kg^−1, Time 56 d): 0 | number of survived mice ([4]; tail vein 10 mg·kg^−1, Time 58 d): 0 | number of survived mice ([4]; tail vein 10 mg·kg^−1, Time 60 d): 0 | number of survived mice ([4]; tail vein 10 mg·kg^−1, Time 62 d): 0 | Relative tumor volume ([5]; BGC-823, tail vein 10 mg·kg^1, time 1 d): 166.88 | Relative tumor volume ([5]; BGC-823, tail vein 10 mg·kg^1, time 3 d): 267.38 | Relative tumor volume ([5]; BGC-823, tail vein 10 mg·kg^1, time 5 d): 317.96 | Relative tumor volume ([5]; BGC-823, tail vein 10 mg·kg^1, time 7 d): 417.96 | Relative tumor volume ([5]; BGC-823, tail vein 10 mg·kg^1, time 9 d): 717.96 | Relative tumor volume ([5]; BGC-823, tail vein 10 mg·kg^1, time 11 d): 1340.69 | Relative tumor volume ([5]; BGC-823, tail vein 10 mg·kg^1, time 13 d): 1636.89 | Relative tumor volume ([5]; BGC-823, tail vein 10 mg·kg^1, time 15 d): 2034.43 | Relative tumor volume ([5]; BGC-823, tail vein 10 mg·kg^1, time 17 d): 2034.43 | Relative tumor volume ([5]; BGC-823, tail vein 10 mg·kg^1, time 19 d): 2034.43 | Relative tumor volume ([5]; BGC-823, tail vein 10 mg·kg^1, time 21 d): 2034.43 | Relative tumor volume ([5]; BGC-823, tail vein 10 mg·kg^1, time 23 d): 2034.43 | Cell Viability ([6]; C6, C 0.001 μg/ml (Table 10)): 100 | Cell Viability ([6]; C6, C 0.003 μg/ml (Table 10)): 98.82 | Cell Viability ([6]; C6, C 0.01 μg/ml (Table 10)): 92.42 | Cell Viability ([6]; C6, C 0.03 μg/ml (Table 10)): 92.03 | Cell Viability ([6]; C6, C 0.08 μg/ml (Table 10)): 94.23 | Cell Viability ([6]; C6, C 0.25 μg/ml (Table 10)): 95.43 | Cell Viability ([6]; C6, C 0.74 μg/ml (Table 10)): 92.822 | Cell Viability ([6]; C6, C 2.22 μg/ml (Table 10)): 96.16 | Cell Viability ([6]; C6, C 6.67 μg/ml (Table 10)): 95.02 | Cell Viability ([6]; C6, C 20 μg/ml (Table 10)): 89.02

CC(=O)O[C@@]12CO[C@@H]1C[C@H](O)[C@@]1(C)C(=O)[C@H](O)C3=C(C)[C@@H](OC(=O)[C@H](O)[C@@H](NC(=O)OC(C)(C)C)c4ccccc4)C[C@@](O)([C@@H](OC(=O)c4ccccc4)[C@H]21)C3(C)C [DTX, docetaxel]
Cell viability(%) ([7]; 4T1, Concentration 3.84E−05 μg/ml): 83.55% | Cell viability(%) ([7]; 4T1, Concentration 7.68E−06 μg/ml): 86.66% | viability at 0.00019 µg/mL ([7]; Homo sapiens, 4T1, Concentration 0.00019 μg/ml): 72.5% | viability at 0.00096 µg/mL ([7]; Homo sapiens, 4T1, Concentration 0.00096 μg/ml): 61.6% | viability at 0.0048 µg/mL ([7]; Homo sapiens, 4T1, Concentration 0.0048 μg/ml): 50.9% | viability at 0.024 µg/mL ([7]; Homo sapiens, 4T1, Concentration 0.024 μg/ml): 49.9% | viability at 0.12 µg/mL ([7]; Homo sapiens, 4T1, Concentration 0.12 μg/ml): 46.3% | viability at 0.6 µg/mL ([7]; Homo sapiens, 4T1, Concentration 0.6 μg/ml): 48.9% | viability at 3 µg/mL ([7]; Homo sapiens, 4T1, Concentration 3 μg/ml): 51.9%
